Test results taken from patent US6872827B2, “Somatostatin analogue compounds” (Chembridge Research Laboratories, Inc., priority 2002, dated 2005).
“And” between values parts separate entries of the source, which are not always exact repeats. Identical values can stand only once.

Tests used:
Somatostatin sst1 = target: T1, Somatostatin sst1 (Homo sapiens, UniProt P30872); test: Somatostatin sst1 radioligand binding assay; conditions: for inhibition at 10 µM: Conc 10 μM
T1 construct: host or cells: CHO-K1
Protocol: (§1) Compounds of the present invention were assessed for their binding affinity to sst1, sst3, and sst4 receptors by biochemical and radioligand assay according to the following procedures. The assays were conducted by MDS Pharma Services—Taiwan Ltd., Pharmacology Laboratories, 158 Li-The Road, Peitou, Taipei, Taiwan 112, R.O.C.
The protocol for sstl assay was adapted from Liapakis, G., Fitzpatrick, D., Hoeger, C., Rivier, J., Vandlen, R. and Reisine, T. (1996) “Identification of ligand binding determinants in the somatostatin receptor subtypes 1 and 2.”J. Biol. Chem. 271(24): 20331-20339, 1996; and Patel, Y. C. and Srikant, C. B. (1994) “Subtype selectivity of peptide analogs for all five cloned human somatostatin receptors (hsstr 1-5).” Endocrinology 135 (6): 2814-2817, 1994. The protocol were and can be conducted according to the following conditions.
(§2) IC50 values were determined by a non-linear, least squares regression analysis using Data Analysis Toolbox™ (MDL Information Systems, San Leandro, Calif., USA). Where inhibition constants (Ki) are presented, the Ki values were calculated using the equation of Cheng and Prusoff (Cheng, Y., Prusoff, W. H., Biochem. Pharmacol. 22:3099-3108, 1973) using the observed IC50 of the tested compound, the concentration of the radioligand employed in the assay, and the historical values for the Kd of the ligand (obtained experimentally at MDS Pharma Services). Where presented, the Hill coefficient (nH), defining the slope of the competitive binding curve, was calculated using Data Analysis Toolbox™. […] Where IC50, Ki and/or nH data are presented without Standard Error of the Mean (SEM), data are insufficient to be quantitative, and the values presented (Ki, IC50, nH) should be interpreted accordingly.

Somatostatin sst4 = target: T2, Somatostatin sst4 (Homo sapiens, UniProt P31391); test: Somatostatin sst4 radioligand binding assay; conditions: for inhibition at 10 µM: Conc 10 μM (Conc not given in some rows)
T2 construct: host or cells: CHO-K1
Protocol: as §1
The protocol for sst4 assay was adapted from Patel, Y. C. and Srikant, C. B. (1994) “Subtype selectivity of peptide analogs for all five cloned human somatostatin receptors (hsstr 1-5).” Endocrinology 135 (6): 2814-2817, 1994. The protocol were and can be conducted according to the following conditions.
as §2

Somatostatin sst 3 = target: T3, Somatostatin sst 3 (Homo sapiens, UniProt P32745); test: Somatostatin sst3 radioligand binding assay; conditions: for inhibition at 10 µM: Conc 10 μM (Conc not given in some rows)
T3 construct: host or cells: CHO-K1
Protocol: as §1
The protocol for sst3 assay was adapted from Liapakis, G., Fitzpatrick, D., Hoeger, C., Rivier, J., Vandlen, R. and Reisine, T. (1996) “Identification of ligand binding determinants in the somatostatin receptor subtypes 1 and 2.”J. Biol. Chem. 271(24): 20331-20339, 1996; and Patel, Y. C. and Srikant, C. B. (1994) “Subtype selectivity of peptide analogs for all five cloned human somatostatin receptors (hsstr 1-5).” Endocrinology 135 (6): 2814-2817, 1994. The protocol were and can be conducted according to the following conditions.
as §2

Sst5 = target: T4, Sst5 (Cavia porcellus, UniProt H0W1F1); test: Sst5 (functional) assay, Vas def gp; conditions: Table 4, Conc 30 μM
T4 sequence (H0W1F1 1-365): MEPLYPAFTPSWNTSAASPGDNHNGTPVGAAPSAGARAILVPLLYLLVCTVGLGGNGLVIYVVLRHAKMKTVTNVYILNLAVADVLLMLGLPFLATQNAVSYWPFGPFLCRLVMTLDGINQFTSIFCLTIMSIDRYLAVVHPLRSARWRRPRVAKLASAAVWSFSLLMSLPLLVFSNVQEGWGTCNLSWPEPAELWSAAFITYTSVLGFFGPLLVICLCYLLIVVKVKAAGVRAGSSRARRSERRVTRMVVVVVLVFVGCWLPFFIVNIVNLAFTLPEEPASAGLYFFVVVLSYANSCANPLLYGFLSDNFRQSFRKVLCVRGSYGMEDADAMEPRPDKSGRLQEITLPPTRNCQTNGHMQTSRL

[1] = Hill coefficient of competitive binding curve

T2 sequence (P31391 whole entry): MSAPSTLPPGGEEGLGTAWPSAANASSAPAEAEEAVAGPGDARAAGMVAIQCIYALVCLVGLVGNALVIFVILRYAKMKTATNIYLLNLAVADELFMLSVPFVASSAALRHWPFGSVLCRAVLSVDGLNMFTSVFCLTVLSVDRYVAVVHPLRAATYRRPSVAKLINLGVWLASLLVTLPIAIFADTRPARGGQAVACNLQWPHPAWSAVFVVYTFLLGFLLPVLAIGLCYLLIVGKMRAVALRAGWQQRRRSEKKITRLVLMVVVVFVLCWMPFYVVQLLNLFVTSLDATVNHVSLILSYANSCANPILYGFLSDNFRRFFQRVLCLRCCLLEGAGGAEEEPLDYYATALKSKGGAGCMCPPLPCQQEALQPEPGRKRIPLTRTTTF
T3 sequence (P32745 whole entry): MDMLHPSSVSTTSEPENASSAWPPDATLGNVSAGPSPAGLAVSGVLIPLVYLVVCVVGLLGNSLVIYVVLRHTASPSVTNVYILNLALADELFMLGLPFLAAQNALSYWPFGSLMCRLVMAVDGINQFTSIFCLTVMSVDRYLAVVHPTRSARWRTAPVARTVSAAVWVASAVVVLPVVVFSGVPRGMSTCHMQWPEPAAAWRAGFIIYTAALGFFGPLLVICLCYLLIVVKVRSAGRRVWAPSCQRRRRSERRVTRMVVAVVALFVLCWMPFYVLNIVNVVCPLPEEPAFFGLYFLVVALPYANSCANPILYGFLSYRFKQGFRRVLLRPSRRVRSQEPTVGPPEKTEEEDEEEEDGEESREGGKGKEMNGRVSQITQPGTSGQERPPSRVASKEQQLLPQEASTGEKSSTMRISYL
T1 sequence (P30872 whole entry): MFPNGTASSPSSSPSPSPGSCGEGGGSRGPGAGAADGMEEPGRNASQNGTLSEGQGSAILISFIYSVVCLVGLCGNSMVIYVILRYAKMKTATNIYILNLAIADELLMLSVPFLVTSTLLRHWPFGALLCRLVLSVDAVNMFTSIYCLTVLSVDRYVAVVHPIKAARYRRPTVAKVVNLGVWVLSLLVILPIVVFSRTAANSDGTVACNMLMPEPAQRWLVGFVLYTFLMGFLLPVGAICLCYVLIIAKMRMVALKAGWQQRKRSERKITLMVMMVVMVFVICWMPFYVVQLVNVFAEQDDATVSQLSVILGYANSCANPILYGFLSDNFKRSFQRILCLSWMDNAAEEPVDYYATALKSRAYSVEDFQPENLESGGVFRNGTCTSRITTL

Row | Molecule | IC50 (Somatostatin sst1; Table 4, human) | Ki (Somatostatin sst1; Table 4, human) | nH (Somatostatin sst1; Table 4, human) | inhibition at 10 µM (Somatostatin sst1; Table 4, human) | IC50 (Somatostatin sst4; Table 4, human) | Ki (Somatostatin sst4; Table 4, human) | nH (Somatostatin sst4; Table 4, human) | inhibition at 10 µM (Somatostatin sst4; Table 4, human) | IC50 (Somatostatin sst 3; Table 4, human) | Ki (Somatostatin sst 3; Table 4, human) | nH (Somatostatin sst 3; Table 4, human) | inhibition at 10 µM (Somatostatin sst 3; Table 4, human) | activation at 30 µM (Sst5; read-out: % Ag) | inhibition at 30 µM (Sst5; guinea pig, read-out: % Ant) | nH (Somatostatin sst1; [1]) | nH (Somatostatin sst4; [1]) | nH (Somatostatin sst 3; [1])
1 | Cc1ccc(Oc2ccc3c(c2)N(CCCCN)CCC32C(=O)N(C)C(=O)N2Cc2c[nH]c3ccccc23)cc1 (stereo not drawn) [D, 7-Tolyloxy-3′-4′-dihydro-2H-quinoline-1-(aminobutan-1yl)-4-spiro-5′-1′-(1H-indol-3-yl-methyl)-3′methyl-imidazolidine-2′4′-dione] | 807 nM | 767 nM | 0.654 | 84% | 5130 nM | 4510 nM | 1.15 | 68% | 7.05 µM | 6.26 µM | 2.34 | 68% | – | – | – | – | –
2 | CN1C(=O)N(CCc2c[nH]c3ccccc23)C(=O)C12CCN(CCCCN)c1cc(O)ccc12 (stereo not drawn) [F] | 1320 nM | 1250 nM | 0.992 | 87% | – | – | – | – | – | – | – | – | – | – | – | – | –
3 | Cc1ccc(Oc2ccc3c(c2)N(CCCCN)CCC32C(=O)N(CCc3c[nH]c4ccccc34)C(=O)N2C)cc1 (stereo not drawn) [H, 7-Tolyloxy-3′-4′-dihydro-2H-quinoline-1-(4-amino-butan-1yl)-4-spiro-5′-1′-methyl-3′[2-(1H-indol-3-yl)-ethyl]-imidazolidine-2′4′-dione] | 1240 nM | 1180 nM | 1.38 | 66% | 649 nM | 570 nM | 1 | 68% | 7.58 µM | 6.73 µM | 0.922 | 57% | – | – | – | – | –
4 | Cc1ccc(Oc2ccc3c(c2)N(CCCCN)CCC32C(=O)N(CCc3c[nH]c4ccccc34)C(=O)N2C)cc1C (stereo not drawn) [I] | 3380 nM | 3210 nM | 0.598 | 66% | 2620 nM | 2300 nM | 1.16 | 71% | 7.96 µM | 7.06 µM | 0.977 | 56% | – | – | – | – | –
5 | CN1C(=O)N(CCc2c[nH]c3ccccc23)C(=O)C12CCN(CCCCN)c1cc(Oc3ccc4c(c3)OCO4)ccc12 (stereo not drawn) [J, 7-(Benzo-[1,3]-dioxol-5-yloxy)-3′-4′-dihydro-2H-quinoline-1-(4-amino-butan-1yl)-4-spiro-5′-1′-methyl-3′[2-(-1H-indol-3-yl)-ethyl]-imidazolidine-2′4′-dione] | 699 nM | 664 nM | 1.28 | 69% | 754 nM | 663 nM | 1.25 | 72% | 3.71 µM | 3.29 µM | 0.915 | 72% | -11% | 1% | – | – | –
6 | Somatostatin-14 [reference compound] | – | – | – | – | – | – | – | – | – | – | – | – | – | – | 0.628 and 0.747 | 1.02 | 0.73 and 0.775
